Experimental data as given in paper PMC7567588 (Science Advances, 2020).
*: point of attachment. ACC = NC(=O)Cc1cc(=O)oc2cc(N*)ccc12

Experiments:
human DUB UCH-L3 [1] = molecular target: T1, human DUB UCH-L3 (Homo sapiens, UniProt P15374); assay type: biochemical
SARS-CoV-2 PLpro [2] = molecular target: T2, SARS-CoV-2 PLpro (Severe acute respiratory syndrome coronavirus 2, UniProt P0DTD1)
human DUB UCH-L3 [3] = molecular target: T1, human DUB UCH-L3; assay type: biochemical; remark: listed apart in the source
SARS-CoV-2 PLpro [4] = molecular target: T2, SARS-CoV-2 PLpro; remark: listed apart in the source
[5] = test system: human DUBs in HeLa lysates; assay type: biochemical

T1 sequence (P15374 whole entry, looked up): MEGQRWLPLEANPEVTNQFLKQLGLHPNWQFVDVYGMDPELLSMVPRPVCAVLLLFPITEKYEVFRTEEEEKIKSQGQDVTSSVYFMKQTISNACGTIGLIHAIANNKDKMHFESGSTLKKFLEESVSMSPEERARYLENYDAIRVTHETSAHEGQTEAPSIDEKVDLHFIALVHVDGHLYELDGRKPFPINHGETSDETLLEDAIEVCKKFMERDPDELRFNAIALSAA

Substance | substrate recognition (hydrolysis rate, RFU/s) (human DUB UCH-L3 [1]) | substrate recognition (hydrolysis rate, RFU/s) (SARS-CoV-2 PLpro [2]) | inhibition of DUB activity (residual activity) (human DUB UCH-L3 [3]) | inhibition of DUB activity (residual activity) (SARS-CoV-2 PLpro [4]) | Ub-VME cross-linking profile of HeLa lysates on titration of inhibitor [5]
Ac-LRGG-{ACC} [Ac-LRGG-ACC] | recognized | recognized |  |  | 
Ac-Abu(Bth)-Dap-Gly-Gly-VME [VIR250] |  |  | practically no inhibition | robustly inhibit | unaltered
